Experimental data published in PMC6126659, “Structural basis for light control of cell development revealed by crystal structures of a myxobacterial phytochrome” (IUCrJ, 2018).

Key:
Format in all cases: binding
[1] = target: T1, SaBphP1-CBD (PAS-GAF) (Allostigmatella aurantiaca, UniProt Q097N3); test: X-ray crystallography ([…] K, […] A); details: covalent, Cys18; dark-adapted Pr state; pH 8.5
T1 construct: gene STIAU_3396; crystallographic dimer

[2] = target: T2, SaBphP1-PCM (PAS-GAF-PHY) (Allostigmatella aurantiaca, UniProt Q097N3, Y262F/T289H); test: UV-vis absorption spectroscopy of bilin-bound protein; details: covalent; dark / 700 / 750 nm illumination, room temperature
T2 construct: gene STIAU_3396; photosensory core module PAS-GAF-PHY, residues 1-516, pET28c(+), E. coli BL21(DE3) co-expressing heme oxygenase; dimer; histidine kinase domain absent

[3] = target: T3, SaBphP1-PCM (PAS-GAF-PHY) (Allostigmatella aurantiaca, UniProt Q097N3, T289H); test: X-ray crystallography ([…] K, […] A; XFEL […] K, […] A); details: covalent, Cys18; dark-adapted Pr state; pH 6.2
T3 construct: gene STIAU_3396; photosensory core module PAS-GAF-PHY, residues 1-516, pET28c(+), E. coli BL21(DE3) co-expressing heme oxygenase; dimer; histidine kinase domain absent

[4] = target: T4, SaBphP1-PCM (PAS-GAF-PHY) (Allostigmatella aurantiaca, UniProt Q097N3, D208T/T289H); test: UV-vis absorption spectroscopy of bilin-bound protein; details: covalent; 740 / 700 nm illumination, room temperature
T4 construct: gene STIAU_3396; photosensory core module PAS-GAF-PHY, residues 1-516, pET28c(+), E. coli BL21(DE3) co-expressing heme oxygenase; dimer; histidine kinase domain absent

[5] = target: T5, SaBphP1-PCM (PAS-GAF-PHY) (Allostigmatella aurantiaca, UniProt Q097N3); test: X-ray crystallography ([…] K, […] A); details: covalent, Cys18; dark-adapted Pr state; pH 6.2
T5 construct: gene STIAU_3396; photosensory core module PAS-GAF-PHY, residues 1-516, pET28c(+), E. coli BL21(DE3) co-expressing heme oxygenase; dimer; histidine kinase domain absent
T5 sequence (Q097N3 entry or part of it): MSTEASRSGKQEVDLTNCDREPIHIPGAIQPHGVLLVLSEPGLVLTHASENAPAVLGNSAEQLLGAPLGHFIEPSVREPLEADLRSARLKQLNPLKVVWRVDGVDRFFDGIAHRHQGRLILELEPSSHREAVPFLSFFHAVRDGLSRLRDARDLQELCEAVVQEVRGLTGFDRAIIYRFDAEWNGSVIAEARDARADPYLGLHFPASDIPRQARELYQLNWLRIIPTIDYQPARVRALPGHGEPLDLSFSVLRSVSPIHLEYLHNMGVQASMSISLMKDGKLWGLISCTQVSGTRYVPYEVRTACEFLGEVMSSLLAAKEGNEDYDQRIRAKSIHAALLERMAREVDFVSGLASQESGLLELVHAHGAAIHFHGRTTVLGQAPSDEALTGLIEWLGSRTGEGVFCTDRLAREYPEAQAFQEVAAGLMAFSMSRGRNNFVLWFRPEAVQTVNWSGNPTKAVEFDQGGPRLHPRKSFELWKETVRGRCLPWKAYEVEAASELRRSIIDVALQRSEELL

T2 sequence (Q097N3 entry or part of it Y262F/T289H): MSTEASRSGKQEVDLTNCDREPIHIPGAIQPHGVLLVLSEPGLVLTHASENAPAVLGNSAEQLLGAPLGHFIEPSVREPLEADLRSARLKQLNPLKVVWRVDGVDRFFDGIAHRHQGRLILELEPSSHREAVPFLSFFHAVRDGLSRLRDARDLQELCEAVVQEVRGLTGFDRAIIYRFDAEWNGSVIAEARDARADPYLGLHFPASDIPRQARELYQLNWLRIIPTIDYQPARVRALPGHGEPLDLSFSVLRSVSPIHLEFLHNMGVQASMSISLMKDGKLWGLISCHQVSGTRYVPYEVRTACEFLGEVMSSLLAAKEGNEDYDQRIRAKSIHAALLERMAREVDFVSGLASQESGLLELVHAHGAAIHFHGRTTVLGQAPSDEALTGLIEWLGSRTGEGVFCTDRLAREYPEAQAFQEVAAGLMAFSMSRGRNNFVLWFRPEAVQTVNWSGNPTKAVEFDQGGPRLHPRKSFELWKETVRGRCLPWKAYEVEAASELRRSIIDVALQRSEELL
T3 sequence (Q097N3 entry or part of it T289H): as the sequence (Q097N3 entry or part of it Y262F/T289H) above, with F262Y counted along it
T1 sequence (Q097N3 entry or part of it): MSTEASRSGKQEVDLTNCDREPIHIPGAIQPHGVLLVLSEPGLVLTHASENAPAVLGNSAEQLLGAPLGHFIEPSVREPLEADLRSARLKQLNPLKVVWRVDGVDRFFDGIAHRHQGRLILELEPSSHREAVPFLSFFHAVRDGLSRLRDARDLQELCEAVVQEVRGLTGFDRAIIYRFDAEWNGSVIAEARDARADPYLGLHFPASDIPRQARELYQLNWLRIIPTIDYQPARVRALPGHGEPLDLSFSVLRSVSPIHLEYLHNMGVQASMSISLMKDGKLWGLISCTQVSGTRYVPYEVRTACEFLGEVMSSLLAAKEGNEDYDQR
T4 sequence (Q097N3 entry or part of it D208T/T289H): as the sequence (Q097N3 entry or part of it Y262F/T289H) above, with D208T, F262Y counted along it

## C=CC1=C(C)C(=Cc2[nH]c(C=C3N=C(C=C4NC(=O)C(C)=C4C=C)C(C)=C3CCC(=O)O)c(CCC(=O)O)c2C)NC1=O [biliverdin]
[1]
  X-ray crystallography (100 K, 2.25 A): The BV chromophore is bound to Cys18 close to the N-terminus
[2]
  UV-vis absorption spectroscopy of bilin-bound protein: the dark-adapted spectrum of the Y262F T289H double mutant
[3]
  X-ray crystallography (100 K, 2.65 A; XFEL 293 K, 3.15 A): the BV A ring tilts with the covalent bond to the Cys18 S atom
[4]
  UV-vis absorption spectroscopy of bilin-bound protein: The mutation of Asp208 to threonine (D208T) abolishes the formation of a stable E-configuration
[5]
  X-ray crystallography (100 K, 2.25 A): electron density that appeared in the chromophore binding pocket was interpreted by a biliverdin linked to Cys18
